Data published in patent publication US12447137B2, “Composition for prevention, amelioration, or treatment of cancer” (EWHA UNIVERSITY—INDUSTRY COLLABORATION FOUNDATION, priority 2019, dated 2025).

Experiments:
p-AMPK (Thr172) [1] = assay: AMPK activation by p-AMPK (Thr172) Western blot in gastric cancer cell lines; type: cell-based, human; details: 10 μM, 12 hours, compared to untreated group
Method: (§1) [3-2] The three breast cancer cell lines (4T1, BT549, and MDA-MB-231) of Experimental Method 1 were treated with each of the compound of Production Example 6 and 13 compounds, including the compounds of Production Examples 1 to 5 and 8 to 15 having a similar structure (YE-01, 02, 03, 04, 05, 08, 09, 10, 11, 12, 13, 14 and 15), at a concentration of 10 μM, and then cultured for 24 hours. In addition, each of two types of gastric cancer cell lines, brain cancer cell lines and pancreatic cancer cell lines was treated with the compound of Production Example 6 or the compound of Production Example 8 having a similar structure at a concentration of 10 μM and then cultured for 12 hours. Thereafter, the cells were harvested and lysed in RIPA buffer, and the protein was electrophoresed by SDS-PAGE, and then the expression level of the protein was analyzed using antibodies specific for AMPK and phospho-AMPK (Thr172). GAPDH or β-actin was used as a loading control for protein quantification.

p-AMPK (Thr172) [2] = assay: AMPK activation by p-AMPK (Thr172) Western blot in brain cancer cell lines; type: cell-based, human; details: 10 μM, 12 hours, compared to untreated group
Method: as §1

p-AMPK (Thr172) [3] = assay: AMPK activation by p-AMPK (Thr172) Western blot in pancreatic cancer cell lines; type: cell-based, human; details: 10 μM, 12 hours, compared to untreated group
Method: as §1

4T1 cell line = assay: Cell viability assay (WST-1); type: cell-based; details: Mus musculus; 4T1, 10 μM, 24 hours; FIG. 3A; read-out: cancer cell viability inhibited
Method: (§2) [4-1-1] The breast cancer cell line of Experimental Method 1 was treated with 5-aminoimidazole-4-carboxamide ribonucleotide (AICAR) (which is not the compound of Production Example 6) or the compound of Production Example 6 at a concentration of 0 to 30 μM, and then cultured for 24 hours, 48 hours and 72 hours. Thereafter, the cultured cells were treated with WST-1 reagent, and then the absorbance at a wavelength of 450 nm was measured. Here, the WST-1 reagent allows the cell viability to be measured by changing the color of the culture medium depending on the level of the mitochondrial dehydrogenase present in the cell.
(§3) [4-1-2] The breast cancer cell line 4T1, BT549 or MDA-MB-231 of Experimental Method 1 was treated with each of the compound of Production Example 6 and 13 compounds, including the compounds of Production Examples 1 to 5 and 8 to 15 having a similar structure (YE-01, 02, 03, 04, 05, 08, 09, 10, 11, 12, 13, 14 and 15), at a concentration of 0 to 50 μM, and then cultured for 24 hours. Each of three types of gastric cancer cell lines, brain cancer cell lines and pancreatic cancer cell lines was treated with the compound of Production Example 6 or the compound of Production Example 8 having a similar structure at a concentration of 0 to 50 μM, and then cultured for 24 hours. Thereafter, the cultured cells were treated with WST-1 reagent according to the manufacturer's instruction, and after a certain time, the absorbance at a wavelength of 450 nm was measured. Here, the WST-1 reagent allows the cell viability to be measured by changing the color of the culture medium depending on the level of the mitochondrial dehydrogenase present in the cell.

BT549 cell line = assay: Cell viability assay (WST-1); type: cell-based; details: Homo sapiens, BT-549; BT549, 10 μM, 24 hours; FIG. 3A; read-out: cancer cell viability inhibited
Method: as §2, §3

MDA-MB-231 cell line = assay: Cell viability assay (WST-1); type: cell-based; details: Homo sapiens; MDA-MB-231, 10 μM, 24 hours; FIG. 3A; read-out: cancer cell viability inhibited
Method: as §2, §3

p-AMPK (Thr172) [4] = assay: AMPK activation by p-AMPK (Thr172) Western blot in 4T1 cells; type: cell-based, mouse; details: 4T1, 10 μM, 24 hours; FIG. 3B
Method: (§4) [3-1] The breast cancer cell line of Experimental Method 1 above was treated with the compound of Production Example 6 at a concentration of 0 to 30 μM, and then cultured for 24 hours. Thereafter, the cells were harvested and lysed in RIPA buffer, and the protein was electrophoresed by SDS-PAGE, and then the expression level of the protein was analyzed using antibodies specific for AMPK and phospho-AMPK (Thr172). GAPDH or β-actin was used as a loading control for protein quantification.
as §1

p-AMPK (Thr172) [5] = assay: AMPK activation by p-AMPK (Thr172) Western blot in BT549 cells; type: cell-based, human; details: BT549, 10 μM, 24 hours; FIG. 3B
Method: as §4
as §1, with “In addition, each of two types of gastric cancer cell lines, brain cancer cell lines and pancreatic cancer cell lines was treated with the compound of Production Example 6 or the compound of Production Example 8 having a similar structure at a concentration of 10 μM and then cultured for 12 hours.” left out

p-AMPK (Thr172) [6] = assay: AMPK activation by p-AMPK (Thr172) Western blot in MDA-MB-231 cells; type: cell-based, human; details: MDA-MB-231, 10 μM, 24 hours; FIG. 3B
Method: as §4, §1

Compound	expression of p-AMPK (p-AMPK (Thr172) [1])	expression of p-AMPK (p-AMPK (Thr172) [2])	expression of p-AMPK (p-AMPK (Thr172) [3])	cytotoxicity at 10 µM (4T1 cell line) [%]	cytotoxicity at 10 µM (BT549 cell line) [%]	cytotoxicity at 10 µM (MDA-MB-231 cell line) [%]	p-AMPK level (p-AMPK (Thr172) [4])	p-AMPK level (p-AMPK (Thr172) [5])	p-AMPK level (p-AMPK (Thr172) [6])
NC(=O)c1ncn([C@@H]2O[C@H](COP(=O)(O)O)[C@@H](O)[C@H]2O)c1N [AICAR, 5-aminoimidazole-4-carboxamide ribonucleotide, reference compound]	insignificant effect	insignificant effect	insignificant effect						
COc1ccc(OC)c(/C=C/C(=O)c2cccc(NS(=O)(=O)c3ccc(Cl)cc3)c2)c1 [Production Example 8, (E)-4-chloro-N-(3-(3-(2,5-dimethoxyphenyl)acryloyl)phenyl)benzenesulfonamide]	increased	increased	increased	≥ 50	≥ 50	≥ 50	effectively increased	effectively increased	effectively increased
